Laboratory results published in US6391908B1, “Oxime amide indole type sPLA2 inhibitors” (Eli Lilly and Company, priority 1998, dated 2002).

Biological target: T1, recombinant human secreted phospholipase A2 (Homo sapiens, UniProt P14555)
T1 sequence (P14555 21-144): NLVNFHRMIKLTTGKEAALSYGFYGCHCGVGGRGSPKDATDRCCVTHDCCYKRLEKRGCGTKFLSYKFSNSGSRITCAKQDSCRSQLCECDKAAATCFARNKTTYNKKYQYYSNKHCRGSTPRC
Test: chromogenic assay for inhibitors of recombinant human secreted phospholipase A2
Format: biochemical
Source text: The following chromogenic assay procedure was used to identify and evaluate inhibitors of recombinant human secreted phospholipase A2. The assay described herein has been adapted for high volume screening using 96 well microtiter plates. A general description of this assay method is found in the article, “Analysis of Human Synovial Fluid Phospholipase A2 on Short Chain Phosphatidylcholine-Mixed Micelles: Development of a Spectrophotometric Assay Suitable for a Microtiterplate Reader”, by Laure J. Reynolds, Lori L. Hughes, and Edward A Dennis, Analytical Biochemistry, 204, pp. 190-197, 1992 (the disclosure of which is incorporated herein by reference): […]
A measured volume of racemic dipheptanoyl thio PC supplied in chloroform at a concentration of 100 mg/ml is taken to dryness and redissolved in 10 millimolar TRITON X-100™ nonionic detergent aqueous solution. […]
5. Read absorbance of wells at 405 nanometers with an automatic plate reader.
All compounds were tested in triplicate. […] Compounds initially found to be active were reassayed to confirm their activity and, if sufficiently active, IC50 values were determined. […] In all cases, % inhibition measured at 405 nanometers generated by enzyme reactions containing inhibitors relative to the uninhibited control reactions was determined. […] IC50 were determined by plotting log concentration versus inhibition values in the range from 10-90% inhibition.

CCc1c(/C(=N/O)C(N)=O)c2c(OCC(=O)O)cccc2n1Cc1ccccc1 [Example 1]
activity in inhibiting sPLA2 (in words): highly active
IC50 (diheptanoyl thio-PC substrate, pH 7.5, 40° C. for 30 minutes, absorbance at 405 nanometers, read-out: Inhibition of human secreted PLA2 IC50 ± mean deviation (3-4 tests)): 49 nM
